Assay results: patent US20260015311A1, “AMINO LIPID COMPOUND, PREPARATION METHOD THEREFOR, AND USE THEREOF” (SHENZHEN SHENXIN BIOTECHNOLOGY CO., LTD., priority 2022, published 2026)

Key:
Fluc mRNA [1] = experiment: In vivo delivery of luciferase mRNA (Fluc mRNA) by lipid nanoparticles, living imaging; design: species or system BALB/c mice; settings: after 12 hours, total fluorescence
Procedure: (§1) The amino lipid compounds of the present disclosure were mixed with DOPE, cholesterol, and PEG2000-DMG in a molar ratio of 45:10:42.5:2.5 and dissolved in absolute ethanol. By using a microinjection pump, the resultant ethanol solution and a sodium acetate solution (50 mM, pH=4.0) were mixed in a ratio of 1:3 in a microfluidic chip to prepare a crude solution of lipid nanoparticles, which were then dialyzed in 1×PBS at a controlled temperature of 4° C. for 6 h using a dialysis box (Fisher, MWCO 20,000), and filtered through a 0.22 μm microporous filter membrane before use.
(§2) The formulation method was the same as the formulation method 1, except that the molar ratio of the amino lipid compounds to DSPC, cholesterol and PEG2000-DMG was 50:10:38.5:1.5.
The lipid nanoparticles prepared according to the above formulation method 1 or 2 were used in the biological experiments below for evaluating the performances of in vivo delivery of luciferase mRNA (Fluc mRNA). For the lipid nanoparticles obtained in the formulation method 1, the mass ratio of the amino lipid compounds to the luciferase mRNA was about 10:1, and the lipid nanoparticles were administered subcutaneously; and the lipid nanoparticles obtained in the formulation method 2 were administered by tail vein and intramuscular injection.
6-week-old female BALB/c mice weighed about 20 g were selected and fed in a SPF-grade feeding room. Animal tests were conducted strictly according to the guidelines of National Health institutions and the requirements of animal ethics.
(§3) 9 mice were assigned randomly to each group and injected with the lipid nanoparticles at a dosage of 0.5 mg/kg by three administration routes, i.e., subcutaneous, intramuscular and tail vein injection (three mice for each administration route). After 12 hours, D-luciferin potassium salt (200 μL, 10 mg/mL) was injected into each mouse through the tail vein. After 10 minutes, the total fluorescence intensity of each mouse was observed on a living imaging system (IVIS-200, Xenogen) and taken photographs for record. The expression intensities of Fluc mRNA delivered by representative amino lipid compounds through the three administration routes are shown in Table 2-4. MC3 was used as a control and SM102 was used as a comparative compound.

influenza mRNA vaccine = experiment: In vivo delivery of influenza mRNA vaccine and immunity, IgG ELISA; design: species or system BALB/c mice; settings: influenza mRNA LNP, injected subcutaneously 0.5 mg/kg Day 0 and Day 7, serum Day 21, FIG. 2
OVA protein = experiment: In vivo delivery of ovalbumin mRNA and immunity, IgG ELISA; design: species or system BALB/c mice; settings: OVA mRNA LNP, injected intramuscularly 0.5 mg/kg Day 0 and Day 7, serum Day 21, FIG. 1
Procedure: as §1, with “compounds of formula (I)” for “compounds”, “of 50:10:38.5:1.5” for “of 45:10:42.5:2.5”, “ethanol. Ovalbumin mRNA (OVA mRNA) was dissolved in a sodium acetate solution (50 mM, pH=4.0).” for “ethanol.”, “and the” for “and a”
The mass ratio of the amino lipid compounds to the ovalbumin mRNA (OVA mRNA) in the obtained lipid nanoparticles was about 10:1.
6-week-old female BALB/c mice weighed about 20 g were selected and fed in a SPF-grade feeding room. Animal tests were conducted strictly according to the guidelines of National Health institutions and the requirements of animal ethics. […]
A flat-bottomed 96-well plate (Nunc) was pre-coated with OVA protein at a concentration of 0.5 μg protein per well in a 50 mM carbonate buffer (pH 9.6) at 4° C., and allowed to stay overnight, and then blocked with 5% glycine. […] After addition of the HRP substrate, the absorbance at 450 nm was measured on an ELISA plate reader (Bio-Rad).

liver = experiment: Targeting assay, fluorescence in liver after intramuscular injection; format: in vivo, mice; settings: 15 μg mRNA per animal, 6 h after injection, dissected liver
Procedure: The lipids were mixed with DSPC, CHO-HP, M-DMG2000 (i.e. PEG2000-DMG) in a molar ratio of 50:10:38.5:1.5 and dissolved in absolute ethanol. mRNA was dissolved in a sodium acetate solution (0.2M, pH=5.0). The samples of various prescriptions were prepared at a water phase:alcohol phase=9 ml/min: 3 ml/min by using a microfluidic equipment (MPE-L2) and a chip (SN.000035). The two phases were mixed by injecting them into the microfluidic chip according to the interface requirements, and then the drug solution was loaded into a 100KD dialysis bags, immersed in a beaker containing 1 L dialysis solution and wrapped with aluminum foil, and dialyzed at 100 rpm for 1 h at room temperature, and then the dialysis solution was replaced and the dialysis continued for 1 h.
Formulation of dialysis solution: 1×PBS+8% sucrose solution: 2 packets of 1×PBS powder were taken into a beaker, dissolved with 2 L DEPC water, added with 160 g of sucrose additionally, and mixed to obtain the 1×PBS+8% sucrose solution.
The mass ratio of mRNA:Lipids in the obtained lipid nanoparticles were about 1:10.
Fluorescent protein-encoding mRNA-LNP preparations containing Compound (I-6-II), MC3 or SM102, respectively were prepared by using the formulation method of mRNA lipid nanoparticle (LNP) preparations as described above, selecting a fluorescent protein-encoding mRNA as the mRNA and the compound (I-6-II), MC3 or SM102, respectively as the lipid.
Each preparation to be tested was administered to mice by intramuscular injection, with each animal receiving 15 μg mRNA preparation sample. 6 h after sample injection, the mice were anesthetized by isoflurane inhalation, and injected intraperitoneally with 200 μL of D-Luciferin (concentration 10 mg/ml) luciferase development substrate. […] After development of living imaging of the intramuscularly injected animals, they were immediately dissected, followed by observation of the fluorescence in the liver immediately after the dissection.

[2] = Stability of lipid nanoparticles at 25° C., DLS particle size and PDI; format: physicochemical
Procedure: as §1
(§4) Preparation of Lipid Nanoparticles: The Formulation Method 1 was Used to Prepare LNPs for Subcutaneous Administration.
Characterization of lipid nanoparticles: The particle size and PDI of the prepared lipid nanoparticles were measured by Nano-ZSZEN 3600 (Malvern). 40 μL of the LNP solution was taken for particle size measurement with circulation for three times, 30 seconds for each circulation.
(§5) The particle size measurements were carried out on the day of preparation (week 0), and after one week (week 1), two weeks (week 2), and four weeks (week 4) of storage at 25° C., and the expression intensities of Fluc mRNA delivered by subcutaneous administration were determined on the day of preparation (week 0) and after four weeks (week 4).

Fluc mRNA [3] = experiment: Stability of lipid nanoparticles at 25° C., subcutaneous expression of Fluc mRNA; format: in vivo, mice
Procedure: as §1, §3, §4, §5

Fluc mRNA [4] = experiment: Activity of lipid nanoparticles of formulation method 2, Fluc mRNA by intramuscular administration; format: in vivo, BALB/c mice
Procedure: as §2, §3
Preparation of Lipid Nanoparticles: LNPs were Prepared Using the Formulation Method 2 for Intramuscular Administration.
The measurement method was the same as that of Test Example 1.

[5] = subcutaneous administration, formulation method 1, 0.5 mg/kg
[6] = intramuscular injection, formulation method 2, 0.5 mg/kg
[7] = tail vein administration, formulation method 2, 0.5 mg/kg

SMILES	Fluorescence intensity (expression intensity of Fluc mRNA) (Fluc mRNA [1]; [5])	IgG antibody titers (influenza mRNA vaccine)	Fluorescence intensity (expression intensity of Fluc mRNA) (Fluc mRNA [1]; [6]) [E + 07]	Fluorescence intensity (expression intensity of Fluc mRNA) (Fluc mRNA [1]; [7])	IgG antibody titers (OVA protein)	fluorescence intensity in liver (liver)	particle size change after four weeks of storage ([2]; 25° C., week 4 versus week 0)	particle size ([2]; preparation day (week 0))	Z-Average ([2]; week 0 (day of preparation)) [nm·days]	PDI ([2]; week 1, storage at 25° C.)	Z-Average ([2]; week 1, storage at 25° C.) [nm·days]	PDI ([2]; week 2, storage at 25° C.)	Z-Average ([2]; week 2, storage at 25° C.) [nm·days]	Z-Average ([2]; week 4, storage at 25° C.) [nm·days]	Fluc expression change after four weeks (Fluc mRNA [3]; 25° C., week 4 versus week 0)	Fluc Expression intensities (Fluc mRNA [3]; week 0, subcutaneous administration)	Fluc Expression intensities (Fluc mRNA [3]; week 4, storage at 25° C., subcutaneous administration)	Fluorescence intensity (expression intensity of Fluc mRNA) (Fluc mRNA [4]) [E + 07]
CCCCCCCC/C=C\CCCCCCCC(=O)OCCCCCCCCN(CCCCCCOC(=O)C(CCCCCC)CCCCCCCC)C1CCCC(O)C1 (stereo not drawn) [Compound 10]	1.1E + 07	comparable to those of SM102	–	–	–	–	–	–	–	–	–	–	–	–	–	–	–	–
CCCCCCCCCCCOC(=O)CCCCCN(CCCCCCCC(=O)OC(CCCCCCCC)CCCCCCCC)C1CC(O)C1 (stereo not drawn) [Compound 2]	1.9E + 08	–	1.3	2.9E + 06	comparable to those of MC3 and SM102	–	–	–	–	–	–	–	–	–	–	–	–	–
CCCCC/C=C\C/C=C\CCCCCCCCC(CCCCCCCC/C=C\C/C=C\CCCCC)OC(=O)CCCN(C)C [MC3, reference compound]	3.7E + 06	lowest IgG antibody titers	2.7	2.7E + 07	–	1.23E+05	–	–	–	–	–	–	–	–	–	–	–	–
CCCCCCCCCCCOC(=O)CCCCCN(CCCCCCCC(=O)OC(CCCCCCCC)CCCCCCCC)C1CCCC(O)C1 (stereo not drawn) [Compound 7]	2.9E + 08	–	3.7	2.9E + 07	stronger immune response	–	did not increase significantly	about 100 nm	95	0.05	105	0.06	115	120	did not decrease significantly	2.9E+08	2.6E+08	3.7
